Earlier results in patent publication US4203975A, “Psychopharmacological peptides suitable for therapeutic administration” (Akzona Incorporated, priority 1977, dated 1980).

Assays:
rats = rats from which the hypophysis or the posterior lobe thereof has been removed
[1] = prior art

| Molecule | inhibition of the extinction of the conditioned flight response (rats) | pressor activity [1] |
| --- | --- | --- |
| (Lys)-vasopressin zinc tannate | capable of inhibiting the extinction of the conditioned flight response | – |
| NC(=O)CC[C@@H]1NC(=O)[C@H](Cc2ccccc2)NC(=O)[C@H](Cc2ccc(O)cc2)NC(=O)[C@@H](N)CSSC[C@@H](C(=O)N2CCC[C@H]2C(=O)N[C@@H](CCCN=C(N)N)C(=O)NCC(N)=O)NC(=O)[C@H](CC(N)=O)NC1=O [vasopressin] | – | extremely powerful pressor activity |
